Test results as given in patent US12029748B2, “Synergistic composition for maintenance of healthy balance of microflora” (KIMBERLY-CLARK WORLDWIDE, INC., priority 2017, dated 2024).

Experiments:
[1] = system: L. crispatus and E. coli; assay: Therapeutic Effect Protocol: L. crispatus / E. coli co-culture, ratio after 36 hours; type: cell-based, Lactobacillus crispatus; E. coli; conditions: for Therapeutic Efficacy Results (Lactobacillus/E. coli) 0.10%: nitrogen compound 0.10 wt/vol % with 1.0 wt/vol % α methyl-D glucoside (10:1); for Therapeutic Efficacy Results (Lactobacillus/E. coli) 0.10% / Therapeutic Efficacy Results (Lactobacillus/E. coli) 0.50% / Therapeutic Efficacy Results (Lactobacillus/E. coli) 1.00%: 36 hours anaerobic co-culture, 37° C.; for Therapeutic Efficacy Results (Lactobacillus/E. coli) 0.50%: nitrogen compound 0.50 wt/vol % with 1.0 wt/vol % α methyl-D glucoside (2:1); for Therapeutic Efficacy Results (Lactobacillus/E. coli) 1.00%: nitrogen compound 1.00 wt/vol % with 1.0 wt/vol % α methyl-D glucoside (1:1); for Therapeutic effect when ratio α methyl-D glucoside : nitrogen compound is at least about 2:1, but not at 1:1: ratio at least about 2:1, not 1:1
Method: As used herein the term “therapeutic effect” refers to the ability of the compositions and formulations of the present invention to stimulate the growth of Lactobacillus relative E. coli measured according to the Therapeutic Effect Protocol described below. Generally, therapeutic effect is expressed as a ratio of Lactobacillus to E. coli and is desirably greater than about 2, more preferably greater than about 20 and more desirably greater than about 100.
The data in Table 1 was tested according to the Therapeutic Effect Protocol as described further herein. The nitrogen compounds were tested for their therapeutic efficacy at three different concentrations when combined with α methyl-D glucoside (1% wt/vol %). The concentrations of the nitrogen containing compounds that were tested were 1% wt/vol %, 0.5% wt/vol %, and 0.1% wt/vol %.
Colonies of L. crispatus and E. coli were prepared as follows. A colony of L. crispatus was transferred to 7 ml de Man, Rogosa & Sharpe (MRS) broth and incubated anaerobically (using BD GasPak EZ anaerobe container system with indicator) at 37° C. without shaking for 18-20 hours. A colony of E. coli was transferred to 5 ml Tryptic Soy Broth (TSB) and incubated aerobically (shaking at 100 rpm) at 37° C. for 18-20 hours.
Colonies were then inoculated as follows. Bacterial cultures were gently vortexed and 1 mL of each culture was transferred to a corresponding 2.0 mL micro-centrifuge tube and then centrifuged for two minutes at 14,500 rpm. The cultural supernatant was removed and the cell pellet was re-suspended in 1 mL of 0.95% (wt/vol %) saline. […] For L. crispatus, the pellet was re-suspended in 1 mL of 0.95% saline to achieve ˜10^7-10^8 cfu/mL. For E. coli, the pellet was re-suspended in 1 mL of 0.95% saline to achieve ˜10^8-10^9 cfu/mL.
Media were prepared as follows.
(§1) All of the ingredients in Table 2 were combined and the pH was adjusted to 6.5. […] To evaluate the effect of various nitrogen containing therapeutic agents on the growth of bacteria, the LAPT-g media, prepared as described above, was supplemented with various nitrogen containing compound therapeutic agents to a final test concentration between 0.1 and 1.0%. As initial screening measures, solubility and initial pH of each composition were checked. If a specific composition was insoluble (as detected by visual indication of precipitates or turbidity), then no further therapeutic efficacy testing was undertaken on that composition. Additionally, if the initial pH of the composition was below 5.5 (“Low”) or was above 6.5 (“High”), then no further therapeutic efficacy testing was undertaken on that composition.
Five milliliters (5 mL) of each medium was transferred to a test tube in duplicates for subsequent inoculation. A master mixture of L. crispatus and E. coli, prepared as described above, was prepared in 1,000:1 ratio. Each (5 ml) test tube was inoculated with the master mixture to give 10^5-10^6 total CFU L. crispatus and 100-1,000 total CFU E. coli per tube.
To establish a negative control, one tube was vortexed and 100 μL was removed to determine the initial cell concentrations by serial dilutions and plating (2 plates per dilution). L. crispatus is selected on MRS agar plates incubated anaerobically at 37° C. for two days. E. coli is selected on TSA plates incubated aerobically at 37° C. for one day. The co-cultures were incubated in an anaerobic container with BD GasPaks at 37° C. for 36 hours.
The effect of the α methyl-D glucoside and the nitrogen containing compound therapeutic agents on the ratio of L. crispatus to E. coli was measured 36 hours after inoculation and a final pH of the test solutions was recorded. The co-culture tube was vortexed and 100 μL was removed to determine the final cell concentrations by serial dilutions and plating (2 plates per dilution). L. crispatus is selected on MRS agar plates incubated anaerobically at 37° C. for two days.

[2] = Initial pH screening of the composition; type: physicochemical; conditions: for I pH (initial pH), 0.10%: nitrogen compound 0.10 wt/vol % with 1.0 wt/vol % α methyl-D glucoside in medium; for I pH (initial pH), 0.50%: nitrogen compound 0.50 wt/vol % with 1.0 wt/vol % α methyl-D glucoside in medium; for I pH (initial pH), 1.00%: nitrogen compound 1.00 wt/vol % with 1.0 wt/vol % α methyl-D glucoside in medium
Excerpt: Each composition in Table 1 went through initial screening measures of solubility and initial pH (“I pH”). […] When a specific concentration of a nitrogen containing compound was insoluble, the initial and final pH (“F pH”) of the combined composition was not measured and accordingly are each marked as “NM.” Additionally, initial pH of the composition was checked as a screening measure. The initial pH was marked as either Low (“L”), High (“H”), or Pass (“P”). A Low initial pH corresponds to an initial pH being less than 5.5, a High initial pH corresponds to an initial pH being greater than 6.5, and a Pass initial pH corresponds to the pH being at or between 5.5-6.5. […] As part of the Therapeutic Effect Protocol, a final pH was also measured after the compositions that were tested against the Lactobacillus and E. coli.
as §1

SMILES: C[C@H](N)C(=O)O [L-Alanine]
- Therapeutic Efficacy Results (Lactobacillus/E. coli) 0.10% [1]: 1.5
- Therapeutic Efficacy Results (Lactobacillus/E. coli) 0.50% [1]: 1.52
- Therapeutic Efficacy Results (Lactobacillus/E. coli) 1.00% [1]: 1.3
- I pH (initial pH), 0.10% [2]: P (a Pass initial pH corresponds to the pH being at or between 5.5-6.5)
- I pH (initial pH), 0.50% [2]: P (a Pass initial pH corresponds to the pH being at or between 5.5-6.5)
- I pH (initial pH), 1.00% [2]: P (a Pass initial pH corresponds to the pH being at or between 5.5-6.5)

SMILES: N[C@@H](CS)C(=O)O [L-Cysteine]
- Therapeutic Efficacy Results (Lactobacillus/E. coli) 0.10% [1]: >299
- Therapeutic Efficacy Results (Lactobacillus/E. coli) 0.50% [1]: 28.38
- Therapeutic Efficacy Results (Lactobacillus/E. coli) 1.00% [1]: 10.44
- Therapeutic effect (ratio of Lactobacillus to E. coli greater than 2) at each concentration tested ([1]; with α methyl-D glucoside, nitrogen compound 1 wt/vol %, 0.5 wt/vol % and 0.1 wt/vol %): provided a therapeutic effect
- Therapeutic effect when ratio α methyl-D glucoside : nitrogen compound is less than 2:1 (1:1) ([1]; with α methyl-D glucoside, ratio 1:1): provided a therapeutic effect
- I pH (initial pH), 0.10% [2]: P (a Pass initial pH corresponds to the pH being at or between 5.5-6.5)
- I pH (initial pH), 0.50% [2]: P (a Pass initial pH corresponds to the pH being at or between 5.5-6.5)
- I pH (initial pH), 1.00% [2]: P (a Pass initial pH corresponds to the pH being at or between 5.5-6.5)

SMILES: NC(=O)CC[C@H](N)C(=O)O [L-Glutamine]
- Therapeutic Efficacy Results (Lactobacillus/E. coli) 0.10% [1]: >161
- Therapeutic Efficacy Results (Lactobacillus/E. coli) 0.50% [1]: 1.28
- Therapeutic Efficacy Results (Lactobacillus/E. coli) 1.00% [1]: 0.53
- Therapeutic effect when ratio α methyl-D glucoside : nitrogen compound is at least about 2:1, but not at 1:1 ([1]; with α methyl-D glucoside): provided a therapeutic effect
- I pH (initial pH), 0.10% [2]: P (a Pass initial pH corresponds to the pH being at or between 5.5-6.5)
- I pH (initial pH), 0.50% [2]: P (a Pass initial pH corresponds to the pH being at or between 5.5-6.5)
- I pH (initial pH), 1.00% [2]: P (a Pass initial pH corresponds to the pH being at or between 5.5-6.5)

SMILES: N[C@@H](CCO)C(=O)O [L-Homoserine]
- Therapeutic Efficacy Results (Lactobacillus/E. coli) 0.10% [1]: >750
- Therapeutic Efficacy Results (Lactobacillus/E. coli) 0.50% [1]: 0.66
- Therapeutic Efficacy Results (Lactobacillus/E. coli) 1.00% [1]: 0.33
- Therapeutic effect when ratio α methyl-D glucoside : nitrogen compound is at least about 2:1, but not at 1:1 ([1]; with α methyl-D glucoside): provided a therapeutic effect
- I pH (initial pH), 0.10% [2]: P (a Pass initial pH corresponds to the pH being at or between 5.5-6.5)
- I pH (initial pH), 0.50% [2]: P (a Pass initial pH corresponds to the pH being at or between 5.5-6.5)
- I pH (initial pH), 1.00% [2]: P (a Pass initial pH corresponds to the pH being at or between 5.5-6.5)

SMILES: NCCCC[C@H](N)C(=O)O [L-Lysine]
- Therapeutic Efficacy Results (Lactobacillus/E. coli) 0.10% [1]: >141
- Therapeutic Efficacy Results (Lactobacillus/E. coli) 0.50% [1]: 1.93
- Therapeutic Efficacy Results (Lactobacillus/E. coli) 1.00% [1]: 0.42
- Therapeutic effect when ratio α methyl-D glucoside : nitrogen compound is at least about 2:1, but not at 1:1 ([1]; with α methyl-D glucoside): provided a therapeutic effect
- I pH (initial pH), 0.10% [2]: P (a Pass initial pH corresponds to the pH being at or between 5.5-6.5)
- I pH (initial pH), 0.50% [2]: P (a Pass initial pH corresponds to the pH being at or between 5.5-6.5)
- I pH (initial pH), 1.00% [2]: P (a Pass initial pH corresponds to the pH being at or between 5.5-6.5)

SMILES: CSCC[C@H](N)C(=O)O [L-Methionine]
- Therapeutic Efficacy Results (Lactobacillus/E. coli) 0.10% [1]: >1.71E+05
- Therapeutic Efficacy Results (Lactobacillus/E. coli) 0.50% [1]: 0.78
- Therapeutic Efficacy Results (Lactobacillus/E. coli) 1.00% [1]: 0.75
- Therapeutic effect when ratio α methyl-D glucoside : nitrogen compound is at least about 2:1, but not at 1:1 ([1]; with α methyl-D glucoside): provided a therapeutic effect
- I pH (initial pH), 0.10% [2]: P (a Pass initial pH corresponds to the pH being at or between 5.5-6.5)
- I pH (initial pH), 0.50% [2]: P (a Pass initial pH corresponds to the pH being at or between 5.5-6.5)
- I pH (initial pH), 1.00% [2]: P (a Pass initial pH corresponds to the pH being at or between 5.5-6.5)
